{
  "source": "patent US6342483B1",
  "about": "“Method for detection and treatment of breast cancer” (Vanderbilt University, priority 1994, dated 2002)",
  "key": {"[1]": {"test_system": "ribonucleotide reductase M2 gene", "assay": "Northern blot and nuclear run on of ribonucleotide reductase M2 in synchronized MCF-7 cells", "format": "cell-based, human", "details": "tamoxifen 48 hours, then 1 uM estradiol", "text": "(§1) In order to critically evaluate the function of BRCA1 gene inhibition on growth stimulation and cell cycle progression it was necessary to identify a gene whose expression is cell cycle regulated in human mammary cells. […] Because ribonucleotide reductase constitutes the rate limiting step in DNA synthesis, we reasoned that it might be cell cycle regulated in a synchronous growth model such as MCF-7 cells which can be growth arrested by tamoxifen and then restimulated by estrogen (Aitken et al. 1985, Arteaga et al. 1989). MCF-7 cells were growth arrested by tamoxifen for 48 hours and then stimulated at time zero (0) with 1 uM estradiol (+E) or control vehicle (−E).\nFIG. 13A is a Northern blot of mRNA from synchronized MCF-7 cells. At the indicated time in hours, total cellular RNA was isolated and Northern blotting performed using the 1.6 Kb Eco RI fragment from our cloned human ribonucleotide reductase cDNA described above. Two mRNA species of 1.6 and 3.4 Kb are observed in these studies.\nCon represents cells which were grown for 48 hours but not treated with tamoxifen."}, "[2]": {"test_system": "MCF-7 cells", "assay": "Nuclear labelling with tritiated thymidine in synchronized MCF-7 cells", "format": "cell-based, human", "details": "tamoxifen 48 hours, then 1 uM estradiol", "text": "as §1"}, "[3]": {"test_system": "ribonucleotide reductase M2 mRNA", "assay": "Nuclease protection assay of ribonucleotide reductase M2 mRNA after antisense treatment, MCF-7 cells", "format": "cell-based, human", "details": "40 uM, cultured 4 days", "experimental": "(§2) Antisense inhibition is a useful strategy for studying gene expression which is dependent on expression of the antisense target gene (Robinson-Benion and Holt, in press, 1995), e.g. genes whose expression is directly or indirectly dependent on BRCA1 levels. […] A nuclease protection assay of mRNA derived from primary mammary epithelial cells (lanes 1-4, 9-10) or MCF-7 cells Oanes 5-8, 11-12) cultured for 4 days with antisense or control oligonucleotide was performed under the following conditions: no oligonucleotide (lanes 1 and 5); 40 uM antiBRCA1 (lanes 2,6,10,12); 4 uM antiBRCA1 (lanes 3 and 7); 40 uM sense control (lanes 4,8,9,11). Probes for BRCA1 and GAPD are as described for FIG. 10, and the ribonucleotide reductase M2 probe (RR) detects the 200 bp probe is described above.\n(§3) Nuclease Protection Assays. PCR primers were derived from BRCA1 sequence in GenBank (Accession number U14680); forward 5′CAA TTG GGC AGA TGT GT 3′ (SEQ ID NO:50) and reverse 5′CTGGGGGATCTGGGGTATCA 3′ (SEQ ID NO:51) which amplify a 113 bp region from exon 24, corresponding to bases 5587 to 5699 of the human BRCA1. This region was selected because this exon has not been reported to be differentially spliced unlike more 5′ exons. […]\n(§4) Antisense oligonucleotide studies. Unmodified deoxyribonucleotide were analyzed by gel electrophoresis and UV shadowing and shown to be homogenous and of appropriate size. […]"}, "[4]": {"test_system": "MCF-7 breast cancer cells", "assay": "Growth rate of MCF-7 cells incubated with antisense or sense oligonucleotide", "format": "cell-based, human", "details": "40 uM oligonucleotide, single bolus, FIG. 12B", "text": "(§5) Unmodified 18 base deoxyribonucleotide complementary to the BRCA1 translation initiation site were synthesized and added to cultures of primary mammary epithelial cells (Stampfer et al. 1980) or MCF-7 breast cancer cells (Soule and McGrath, 1980). FIG. 12 is graph showing growth rate of human primary mammary epithelial cells (A), MCF-7 cells (B), retinal pigmented epithelial cells (C), cultured as described below. Points and bars represent the mean and the 95% confidence interval of triplicate counts of cells incubated with a single bolus of the indicated concentration of antisense or control sense deoxyribonucleotide.\n(§6) Antisense oligonucleotide studies. Unmodified deoxyribonucleotide were analyzed by gel electrophoresis and UV shadowing and shown to be homogenous and of appropriate size. These oligonucleotide were purified by multiple lyophilization and solubilized in buffered media as described (Holt et al. 1988). Sequence of the unmodified antiBRCA1 oligonucleotide 5′AAG AGC AGA TAA ATC CAT 3′(SEQ ID NO: 52) and the complementary sense oligonucleotide 5′ATG GAT TTA TCT GCT CTT 3′ (SEQ ID NO:53) correspond to the presumed translation initiation site at bases 12-137 of the GenBank sequence. The antisense oligonucleotide sequence was searched against GenBank and no significant homologies were identified to genes except BRCA1. […]"}, "[5]": {"test_system": "human retinal pigmented epithelial cells", "assay": "Growth rate of retinal pigmented epithelial cells incubated with antisense or sense oligonucleotide", "format": "cell-based", "details": "40 uM oligonucleotide, single bolus; FIG. 12C", "text": "as §5, §6"}, "[6]": {"test_system": "ribonucleotide reductase M2 mRNA", "assay": "Nuclease protection assay of ribonucleotide reductase M2 mRNA after antisense treatment, primary mammary epithelial cells", "format": "cell-based, human", "details": "40 uM, cultured 4 days", "experimental": "as §2, §3, §4"}, "[7]": {"test_system": "BRCA1 mRNA", "assay": "Nuclease protection assay of BRCA1 mRNA after antisense treatment", "format": "cell-based, human", "details": "compared with cells treated with sense control oligonucleotide; 40 uM, 4 days; lanes 9 and 10 FIG. 14 (primary mammary epithelial cells)", "experimental": "as §2, §3, §4"}, "[8]": {"test_system": "human primary mammary epithelial cells", "assay": "Growth rate of primary mammary epithelial cells incubated with antisense or sense oligonucleotide", "format": "cell-based", "text": "as §5\nAntisense oligonucleotide studies. Unmodified deoxyribonucleotide were analyzed by gel electrophoresis and UV shadowing and shown to be homogenous and of appropriate size. These oligonucleotide were purified by multiple lyophilization and solubilized in buffered media as described (Holt et al. 1988). Sequence of the unmodified antiBRCA1 oligonucleotide 5′AAG AGC AGA TAA ATC CAT 3′(SEQ ID NO: 52) and the complementary sense oligonucleotide 5′ATG GAT TTA TCT GCT CTT 3′ (SEQ ID NO:53) correspond to the presumed translation initiation site at bases […] of the GenBank sequence. The antisense oligonucleotide sequence was searched against GenBank and no significant homologies were identified to genes except BRCA1. Oligonucleotides were used according to our published methods (Holt et al. 1988). Primary mammary epithelial cells were cultured in serum-free medium supplemented with epidermal growth factor, insulin, hydrocortisone, ethanolamine, phosphorylethanolamine, and bovine pituitary extract. MCF-7 cells were cultured in Minimum Essential Medium Eagle (Modified) with Earle's salts and 2g/L sodium bicarbonate m supplemented with 2 mM L-glutamine, GMS-A (Gibco Cat. #680-1300AD), nonessential amino acids, and 2.5% fetal calf serum. Retinal pigmented perithelial cells were cultured in DMEM and 10% calf serum."}},
  "data": [
    {"compound": "C[C@]12CC[C@@H]3c4ccc(O)cc4CC[C@H]3[C@@H]1CC[C@@H]2O", "note": "[estrogen, estradiol]", "values": [
      {"measurement": "transcription of the ribonucleotide reductase M2 gene", "setting": "[1]", "value": "induced"},
      {"measurement": "DNA synthesis", "setting": "[2]", "value": "induction of synthesis"}
    ]},
    {"compound": "anti-BRCA1 oligonucleotide: Unmodified 18 base deoxyribonucleotide complementary to the BRCA1 translation initiation site, 5′AAG AGC AGA TAA ATC CAT 3′ (SEQ ID NO: 52) (antisense AAGAGCAGATAAATCCAT; unmodified DNA)", "values": [
      {"measurement": "ribonucleotide reductase mRNA levels", "setting": "[3]", "value": "highest"},
      {"measurement": "growth of malignant mammary cells", "setting": "[4]", "value": "accelerated growth"},
      {"measurement": "growth of human retinal pigmented epithelial cells", "setting": "[5]", "value": "did not affect the growth"},
      {"measurement": "ribonucleotide reductase mRNA levels", "setting": "[6]", "value": "highest"},
      {"measurement": "inhibition of BRCA1 mRNA levels", "setting": "[7]", "value": "70-90%"},
      {"measurement": "growth of normal mammary cells", "setting": "[8]; 40 uM oligonucleotide, single bolus, FIG. 12A", "value": "accelerated growth"},
      {"measurement": "morphologic appearance of the cell lines", "setting": "[8]; addition of antisense oligonucleotide", "value": "not noticeably changed"},
      {"measurement": "proliferative rate of the cell lines", "setting": "[8]; addition of antisense oligonucleotide, dose not stated", "value": "faster"},
      {"measurement": "cell growth rate", "setting": "[8]; intermediate dose, cell line not given", "value": "less pronounced but significant increase"}
    ]},
    {"compound": "CC/C(=C(\\c1ccccc1)c1ccc(OCCN(C)C)cc1)c1ccccc1", "note": "[tamoxifen]", "values": [
      {"measurement": "transcription of the ribonucleotide reductase M2 gene", "setting": "[1]", "value": "inhibited"},
      {"measurement": "DNA synthesis", "setting": "[2]", "value": "Inhibition of DNA synthesis"}
    ]},
    {"compound": "sense oligomer: Complementary sense control oligonucleotide with the same GC content, 5′ATG GAT TTA TCT GCT CTT 3′ (SEQ ID NO:53) (sense ATGGATTTATCTGCTCTT; further chemistry not given here) [reference compound]", "values": [
      {"measurement": "growth activation by anti-BRCA1 oligomer", "setting": "[8]; 10 fold excess of sense oligomer added to the anti-BRCA1 oligomer, cell line not specified", "value": "reversed the growth activation"},
      {"measurement": "proliferation rate", "setting": "[8]; control oligomer with the same GC content, cell line not specified", "value": "did not increase the proliferation rate"}
    ]}
  ]
}
